Laboratory results taken from ChEMBL document CHEMBL4879554, “Data for DCP probe GNE-2256” (2021).

Columns and labels:
[1] = molecular target: Receptor-type tyrosine-protein kinase FLT3 (Homo sapiens, UniProt P36888); assay: NanoBRET assay (FLT3, SGC Frankfurt)
[2] = molecular target: Tyrosine-protein kinase JAK1 (Homo sapiens, UniProt P23458); assay: NanoBRET assay (JAK1, SGC Frankfurt)
[3] = molecular target: Tyrosine-protein kinase JAK2 (Homo sapiens, UniProt O60674); assay: NanoBRET assay (JAK2, SGC Frankfurt)
Tyrosine-protein kinase JAK2, sequence (O60674 whole entry): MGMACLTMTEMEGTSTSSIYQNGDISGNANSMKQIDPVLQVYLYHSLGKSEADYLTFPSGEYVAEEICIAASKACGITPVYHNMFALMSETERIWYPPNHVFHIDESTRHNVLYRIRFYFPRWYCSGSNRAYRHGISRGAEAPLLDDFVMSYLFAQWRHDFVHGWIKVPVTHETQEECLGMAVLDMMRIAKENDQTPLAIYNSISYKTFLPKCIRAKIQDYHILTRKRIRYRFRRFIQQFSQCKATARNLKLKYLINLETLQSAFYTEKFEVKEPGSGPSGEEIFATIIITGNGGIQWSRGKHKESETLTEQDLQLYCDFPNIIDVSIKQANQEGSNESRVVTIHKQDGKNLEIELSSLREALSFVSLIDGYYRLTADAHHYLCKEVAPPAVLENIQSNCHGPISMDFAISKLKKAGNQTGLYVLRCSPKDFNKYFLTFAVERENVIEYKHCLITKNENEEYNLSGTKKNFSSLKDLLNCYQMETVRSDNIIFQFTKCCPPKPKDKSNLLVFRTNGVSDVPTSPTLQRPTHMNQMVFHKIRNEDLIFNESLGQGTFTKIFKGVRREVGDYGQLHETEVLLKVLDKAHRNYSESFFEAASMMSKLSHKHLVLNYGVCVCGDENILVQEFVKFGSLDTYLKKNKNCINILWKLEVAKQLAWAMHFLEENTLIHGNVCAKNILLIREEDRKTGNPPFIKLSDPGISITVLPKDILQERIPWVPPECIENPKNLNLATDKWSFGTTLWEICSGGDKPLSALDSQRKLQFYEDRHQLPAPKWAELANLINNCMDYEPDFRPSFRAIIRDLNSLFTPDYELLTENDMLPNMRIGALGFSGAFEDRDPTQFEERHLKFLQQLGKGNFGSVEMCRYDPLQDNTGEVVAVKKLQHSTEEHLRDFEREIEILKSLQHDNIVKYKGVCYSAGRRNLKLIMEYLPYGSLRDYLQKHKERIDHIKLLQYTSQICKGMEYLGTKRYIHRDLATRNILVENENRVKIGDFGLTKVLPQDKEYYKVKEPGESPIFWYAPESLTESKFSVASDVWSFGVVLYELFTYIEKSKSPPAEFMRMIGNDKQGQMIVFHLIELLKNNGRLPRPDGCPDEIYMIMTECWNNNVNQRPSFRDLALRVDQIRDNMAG

Receptor-type tyrosine-protein kinase FLT3, sequence (P36888 whole entry): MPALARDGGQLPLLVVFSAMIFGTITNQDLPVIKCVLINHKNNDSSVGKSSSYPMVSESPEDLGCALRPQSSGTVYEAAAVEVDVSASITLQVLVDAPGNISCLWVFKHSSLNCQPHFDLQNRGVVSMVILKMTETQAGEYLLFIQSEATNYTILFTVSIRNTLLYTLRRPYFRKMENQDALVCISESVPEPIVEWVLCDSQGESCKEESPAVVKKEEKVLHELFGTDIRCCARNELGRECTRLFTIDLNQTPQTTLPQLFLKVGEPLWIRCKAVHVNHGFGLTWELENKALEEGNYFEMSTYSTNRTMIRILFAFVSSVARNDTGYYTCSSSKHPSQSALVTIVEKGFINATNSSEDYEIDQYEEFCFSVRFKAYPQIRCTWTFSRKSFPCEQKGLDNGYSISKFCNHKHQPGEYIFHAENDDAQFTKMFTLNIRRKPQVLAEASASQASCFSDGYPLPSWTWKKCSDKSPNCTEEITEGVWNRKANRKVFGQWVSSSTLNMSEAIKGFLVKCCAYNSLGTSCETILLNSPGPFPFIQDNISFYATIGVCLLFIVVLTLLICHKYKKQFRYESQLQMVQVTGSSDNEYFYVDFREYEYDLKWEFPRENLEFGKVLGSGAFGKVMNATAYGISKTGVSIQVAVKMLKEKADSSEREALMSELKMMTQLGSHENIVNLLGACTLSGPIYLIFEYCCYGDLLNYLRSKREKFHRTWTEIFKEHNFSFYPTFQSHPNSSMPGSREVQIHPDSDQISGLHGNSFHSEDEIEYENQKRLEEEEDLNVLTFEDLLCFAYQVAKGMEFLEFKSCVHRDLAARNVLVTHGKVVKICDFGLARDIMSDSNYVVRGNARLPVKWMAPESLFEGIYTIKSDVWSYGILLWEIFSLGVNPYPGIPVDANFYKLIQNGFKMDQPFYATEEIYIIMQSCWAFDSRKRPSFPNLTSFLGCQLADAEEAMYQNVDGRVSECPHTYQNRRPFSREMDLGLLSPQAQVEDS
Tyrosine-protein kinase JAK1, sequence (P23458 whole entry): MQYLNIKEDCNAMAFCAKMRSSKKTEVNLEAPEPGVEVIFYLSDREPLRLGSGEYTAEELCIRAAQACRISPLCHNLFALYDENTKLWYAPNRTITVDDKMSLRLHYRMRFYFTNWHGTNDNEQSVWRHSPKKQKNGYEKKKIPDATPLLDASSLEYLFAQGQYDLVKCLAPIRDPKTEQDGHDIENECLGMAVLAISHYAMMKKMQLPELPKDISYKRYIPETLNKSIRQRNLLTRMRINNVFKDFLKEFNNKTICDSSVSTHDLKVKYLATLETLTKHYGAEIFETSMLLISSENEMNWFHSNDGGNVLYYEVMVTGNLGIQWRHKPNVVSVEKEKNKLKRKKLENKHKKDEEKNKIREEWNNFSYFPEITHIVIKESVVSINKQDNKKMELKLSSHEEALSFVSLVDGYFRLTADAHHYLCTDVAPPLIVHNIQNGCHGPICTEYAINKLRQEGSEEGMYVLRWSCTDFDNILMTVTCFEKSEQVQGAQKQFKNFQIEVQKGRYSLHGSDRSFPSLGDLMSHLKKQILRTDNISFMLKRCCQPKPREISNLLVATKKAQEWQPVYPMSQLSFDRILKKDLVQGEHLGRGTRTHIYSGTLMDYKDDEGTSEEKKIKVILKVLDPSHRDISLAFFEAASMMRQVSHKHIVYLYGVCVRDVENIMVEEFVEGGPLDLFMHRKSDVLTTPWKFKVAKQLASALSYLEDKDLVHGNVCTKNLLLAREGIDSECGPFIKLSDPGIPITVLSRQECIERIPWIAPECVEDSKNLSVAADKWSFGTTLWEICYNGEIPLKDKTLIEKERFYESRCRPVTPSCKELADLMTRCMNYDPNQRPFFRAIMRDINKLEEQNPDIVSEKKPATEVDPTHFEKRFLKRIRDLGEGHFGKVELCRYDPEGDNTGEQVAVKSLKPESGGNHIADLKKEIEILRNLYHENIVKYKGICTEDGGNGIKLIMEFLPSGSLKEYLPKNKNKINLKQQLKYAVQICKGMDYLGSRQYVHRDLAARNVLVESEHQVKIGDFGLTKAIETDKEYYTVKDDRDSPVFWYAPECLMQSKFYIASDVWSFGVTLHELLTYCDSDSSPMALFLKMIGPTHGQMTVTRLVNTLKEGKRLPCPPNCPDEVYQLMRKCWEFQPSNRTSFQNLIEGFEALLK

- EC50 [1]: 3.6 µM (not active)
- EC50 [2]: > 50 µM (not active)
- EC50 [3]: > 50 µM (not active)
Compound: CN(C(=O)c1cnn2cccnc12)c1cc2c(cc1N1CCOCC1)C(=O)N(C[C@@H](F)C(C)(C)O)C2
